Patent publication US4196217A, “Hydroxylated amines with bacteriostatic activity” (priority 1978, dated 1980)
“And” between values parts separate entries of the source, which are not always exact repeats. Equal entries are not always repeated. Where two headings read alike, the source gives them in different places.

Assays:
Staphyloccus aureus = assay: bacteriostatic activity (MIC), Staphylococcus aureus; assay type: cell-based; conditions: Staphylococcus aureus, 48 h
Procedure: (§1) The medium containing the solution to be tested is inoculated in the form of three single striae with a 10^-5 times dilution of a bacterial culture aged 16 to 18 hours grown in salted peptone broth at a temperature of 37° C.
(§2) After inoculation, the media are stored at 37° C. for 48 hours, after which the bacterial growth is inspected. The MIC (minimum inhibiting concentrations) are expressed in micrograms of pure product per cubic centimeter of gelose medium required for inhibiting the culture (μg/cc). The control substance used is benzalconium chloride.
(§3) Tests were also carried out to determine the bacteriostatic activity of other compounds according to the invention by the method described above and in comparison with known substances, in particular with benzalconium chloride (compound T in the Tables).

Bacillus subtilis [1] = assay: bacteriostatic activity (MIC), Bacillus subtilis; assay type: cell-based; conditions: for MIC: Bacillus subtilis, 48 h
Procedure: as §1, §2, §3

Pseudomonas aeruginosa [2] = assay: bacteriostatic activity (MIC), Pseudomonas aeruginosa; assay type: cell-based; conditions: for MIC: Pseudomonas aeruginosa, 48 h
Procedure: as §1, §2, §3

Pneumobacille = assay: bacteriostatic activity (MIC), Pneumobacille; assay type: cell-based; conditions: 48 h, Table I, 37° C., read-out: MIC
Procedure: as §2, with “The medium containing the solution to be tested is inoculated in the form of three single striae with a 10^-5 times dilution of a bacterial culture aged 16 to 18 hours grown in salted peptone broth at a temperature of 37° C. After” for “After”

Serratia = assay: bacteriostatic activity (MIC), Serratia; assay type: cell-based; conditions: Serratia, 48 h, Table I, 37° C., read-out: MIC
Procedure: as §2, with “The medium containing the solution to be tested is inoculated in the form of three single striae with a 10^-5 times dilution of a bacterial culture aged 16 to 18 hours grown in salted peptone broth at a temperature of 37° C. After” for “After”

Proteus vulgaris = assay: bacteriostatic activity (MIC), Proteus vulgaris; assay type: cell-based; conditions: Proteus vulgaris, 48 h, Table I, 37° C., read-out: MIC
Procedure: as §2, with “The medium containing the solution to be tested is inoculated in the form of three single striae with a 10^-5 times dilution of a bacterial culture aged 16 to 18 hours grown in salted peptone broth at a temperature of 37° C. After” for “After”

Enterbacter cloacae = assay: bacteriostatic activity (MIC), Enterbacter cloacae; assay type: cell-based; conditions: 48 h, Table I, 37° C., read-out: MIC
Procedure: as §2, with “The medium containing the solution to be tested is inoculated in the form of three single striae with a 10^-5 times dilution of a bacterial culture aged 16 to 18 hours grown in salted peptone broth at a temperature of 37° C. After” for “After”

Moraxella glucidolytica = assay: bacteriostatic activity (MIC), Moraxella glucidolytica; assay type: cell-based; conditions: Moraxella, 48 h, Table I, 37° C., read-out: MIC
Procedure: as §2, with “The medium containing the solution to be tested is inoculated in the form of three single striae with a 10^-5 times dilution of a bacterial culture aged 16 to 18 hours grown in salted peptone broth at a temperature of 37° C. After” for “After”

Escherichia coli = assay: bactericidal activity, Escherichia coli; assay type: cell-based; conditions: Table II, 2 hours contact, laboratory temperature, read-out: MIC (bactericidal activity)
Procedure: (§4) Bactericidal activity is determined by the following methods: A titrate suspension of bacteria is brought into contact over a period of 2 hours at the temperature of the laboratory with increasing dilutions of the test product. The number of bacteria still alive are counted after passage through a filtering membrane.

Pseudomonas aeruginosa [3] = assay: bactericidal activity, Pseudomonas aeruginosa; assay type: cell-based; conditions: Table II, 2 hours contact, laboratory temperature, read-out: MIC (bactericidal activity)
Procedure: as §4

Bacillus subtilis [4] = assay: bactericidal activity, Bacillus subtilis; assay type: cell-based; conditions: Table II, 2 hours contact, laboratory temperature, read-out: MIC (bactericidal activity)
Procedure: as §4

[5] = system: spores of B.subtilis var. Niger; assay: sporostatic activity (a), Petri dish dilution; assay type: cell-based; conditions: for number of colonies (average of 2 tests): approximately 200 spores
Procedure: (a) 1 cc of a suspension of spores of B.subtilis var. Niger containing approximately 200 spores is placed in one Petri dish, whilst 1 cc of a solution containing 3 g/100 cc of the product (mother solution) or of the same mother solution diluted to 1/10th, 1/100th, etc. up to 1/100,000th, are placed in other Petri dishes. Following the addition of a culture medium, the dishes are agitated, cooled and then placed in an oven. The number of colonies obtained are then determined.

Bacillus pyocyaneus = assay: bactericidal concentration on 6 different strains; assay type: cell-based
Ps. aeruginosa = assay: in vivo effect on infection of excised wounds in rats; design: species or system rats infected with Ps. aeruginosa
Procedure: The activity of the compound of Example 1 was also tested in vivo, in particular the compound was tested for its effect on Bacillus pyocyaneus in the following manner:
Rats are intravenously injected with 1 ml of a 10^8 solution of Ps. aeruginosa. A 20 cm^2 cutaneous excision was then made in the animals.
30 minutes after the injection, the bacteria injected were detected in the vicinity of the wound by the replica method on a solid nutritive medium.
One group of rats was sprayed with the compound of Example 1 (aqueous solution) in the vicinity of the wounds (1 to 3 times daily).
A group of control rats were sprayed with sterile distilled water.

[6] = acute toxicity, intragastric, rats; conditions: rat, in vivo, po, both after 48 hours and after 14 days
Procedure: (§5) The LD50 was calculated by the graphic method of J. T. Lichtfield and F. Wilcoxon (J. Pharm. Exp. Ther. 1949, 96: 99-[…]).

[7] = acute toxicity, intragastric, mice; conditions: mouse, in vivo, po, both after 48 hours and after 14 days
Procedure: as §5

in vivo = conditions: mouse, mice, intravenous, both after 3 minutes and after 14 days
Excerpt: Acute toxicity was again determined in male mice by intravenous administration.

ocular irritation = assay type: in vivo; conditions: 0.1 ml of a 0.5% solution
Procedure: The method used is the method described in the Official Journal of Apr. 21, 1971, page 3863, and comprises applying to the right eye of each animal 0.1 ml of a 0.5% solution. The general total of the results is 0 which confirms the high tolerance of the product mentioned above.

[8] = Table I, with 20% of serum, 37° C., 48 hours, read-out: MIC
[9] = Table I, without serum, 37° C., 48 hours, read-out: MIC
[10] = Table VI, bacteriostase containing 20% of serum, read-out: M.I.C.
[11] = Table VI, bacteriostase containing 20% of serum, hydrochloride
[12] = aqueous solution sprayed near wounds, 1 to 3 times daily

## CCCCCCCCCCOCC(O)CN.Cl (centres unmarked) [Compound 1, 3-decyloxy-2-hydroxy-1-aminopropane hydrochloride]
Staphyloccus aureus; [8]
  MIC: 120 mg/L
Staphyloccus aureus; [9]
  MIC: 60 mg/L
Staphyloccus aureus; [10]
  MIC: 75 mg/L
Bacillus subtilis [1]; [8]
  MIC: 50 mg/L
Bacillus subtilis [1]; [9]
  MIC: 30 mg/L
Bacillus subtilis [1]; [10]
  MIC: 60 mg/L
Bacillus subtilis [1]; Table VI, bacteriostase without serum, read-out: M.I.C.
  MIC: 15 mg/L
Bacillus subtilis [1]; [11]
  M.I.C.: 50 μg/cc and 40 μg/cc
Pseudomonas aeruginosa [2]; [8]
  MIC: 150 mg/L
Pseudomonas aeruginosa [2]; [9]
  MIC: 40 mg/L
Pseudomonas aeruginosa [2]; [10]
  MIC: 250 mg/L
Pseudomonas aeruginosa [2]; [11]
  M.I.C.: 200 μg/cc and 400 μg/cc and 350 μg/cc
Pneumobacille; with 20% of serum
  MIC: 75 mg/L
Pneumobacille; without serum
  MIC: 35 mg/L
Serratia; with 20% of serum
  MIC: 75 mg/L
Serratia; without serum
  MIC: 20 mg/L
Proteus vulgaris; with 20% of serum
  MIC: 150 mg/L
Proteus vulgaris; without serum
  MIC: 40 mg/L
Enterbacter cloacae; with 20% of serum
  MIC: 80 mg/L
Enterbacter cloacae; without serum
  MIC: 30 mg/L
Moraxella glucidolytica; with 20% of serum
  MIC: 75 mg/L
Moraxella glucidolytica; without serum
  MIC: 40 mg/L
Escherichia coli
  MBC: 50 mg/L
Pseudomonas aeruginosa [3]
  MBC: 50 mg/L
Bacillus subtilis [4]
  MBC: 50 mg/L
[5]; 0 dilutions to 1/10 (mother solution 3 g/100 cc)
  number of colonies (average of 2 tests): 0
[5]; 1 dilution to 1/10 of mother solution 3 g/100 cc
  number of colonies (average of 2 tests): 0
[5]; 2 dilutions to 1/10 of mother solution 3 g/100 cc
  number of colonies (average of 2 tests): 18
[5]; 3 dilutions to 1/10 of mother solution 3 g/100 cc
  number of colonies (average of 2 tests): > 200
[5]; 4 dilutions to 1/10 of mother solution 3 g/100 cc
  number of colonies (average of 2 tests): > 200
[5]; 5 dilutions to 1/10 of mother solution 3 g/100 cc
  number of colonies (average of 2 tests): > 200
[5]; Bacillus subtilis, taking into account the dilution by the gelose culture medium, from Table III, read-out: concentration still showing sporostatic activity
  MIC: 20 mg/L
Bacillus pyocyaneus
  bactericidal concentration: very similar to the MIC
Ps. aeruginosa; [12]
  number of colonies in positive cultures in relation to control rats: only a very small number of colonies
  replica cultures totally negative: 75%
Ps. aeruginosa; rat, in vivo
  local tolerance: good
Ps. aeruginosa; sprayed near wounds, 1 to 3 times daily
  healing process: normal
[6]
  LD50: 1300 mg/kg
[7]
  LD50: 1300 mg/kg
In vivo
  LD50: 54.5 mg/kg
Ocular irritation
  ocular irritation, general total of the results: 0
